For 15 compounds, IC50 results are on record in patent US11028066B2, “Inhibitors of lysine specific demethylase-1” (CELGENE QUANTICEL RESEARCH, INC., priority 2014, dated 2021).

One experiment concerns Kasumi-1. The experiment in a line: Kasumi-1 AML cell line proliferation assay (Cell-MTS assay). The experiment is classed as cell-based. Conditions: Homo sapiens, 168 hours incubation. From the text:
Colorimetric cellular assay to assess the ability of LSD-1 small molecule inhibitors to effect the proliferation of the established AML cancer cell line Kasumi-1.
This Cell-MTS assay is a 7-day plate based colorimetric assay which quantifies the amount of newly generated NADH in the presence and absence of test compound. These NADH levels are used as a proxy for the quantification of cancer cell proliferation.
The established cancer cell line Kasumi-1 with a verified p53 mutation were purchased from American Type Culture Collection (ATCC) and routinely passaged according to ATCC published protocols. For routine assay these cells were seeded at a density of 20,000 cells per 96-well. 24 hours after plating, cells received an 11 point dilution of test compound with final concentration ranges from 100 μM to 2.0 nM. Cells are incubated in the presence of compound for 168 hours at 37° C., 5% CO2. At the end of this compound incubation period, 80 μl of media is removed and 20 μL of CellTiter 96® AQueous Non-Radioactive Cell Proliferation Assay solution (Promega) is added. The cells are incubated until the OD490 is >0.6. IC50 values are calculated using the IDBS XLfit software package and include background subtracted OD490 values and normalization to DMSO controls.
Table 5 provides the Kasumi-1 cellular IC50 values of various substituted heterocyclic compounds disclosed herein.

For a further experiment, the system named is THP-1 (AML) cells. The experiment can be described thus: LSD1 CD11b cellular assay (flow cytometry). The experiment is classed as cell-based. As to conditions: Homo sapiens, THP-1, 96 h; CD11b expressing cells, 4 days incubation. (A flow cytometer gives signals particle by particle.)
Another experiment concerns the target full-length human LSD1 (Homo sapiens (Human), UniProt O60341). The experiment can be described thus: In vitro enzyme inhibition assay LSD-1 (TR-FRET). It counts as biochemical. As to conditions: H3K4me1-biotin peptide. The essentials: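 Demethylase activity of full-length human LSD1 was detected by TR-FRET after 1 hour incubation at room temperature. Excitation was at 320 nm, with emission at 615 nm and 665 nm. IC50 values were derived from the inhibition data.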
In general terms: In TR-FRET formats the signal depends on donor and acceptor labels being close together.

In the case of `Cc1ccc(-c2c(-c3ccc(C#N)c(F)c3)nc(NC[C@H]3CCNC3)c(=O)n2CCO)cc1` [Example 44, 4-(6-{[((3S)-pyrrolidin-3-yl)methyl]amino}-4-(2-hydroxyethyl)-3-(4-methylphenyl)-5-oxo(4-hydropyrazin-2-yl))-2-fluorobenzenecarbonitrile], the values for the concentration for half-maximal inhibition (IC50) with Kasumi-1, in the experiment with THP-1 (AML) cells and against full-length human LSD1 were not above 100 nM, less than 100 nM and less than 100 nM, respectively.
`CN(C)c1ccc(-c2c(-c3ccc(C#N)c(F)c3)cc(N3CCC(N)CC3)c(=O)n2C)cn1` [Example 91, 4-{5-(4-aminopiperidyl)-2-[6-(dimethylamino)(3-pyridyl)]-1-methyl-6-oxo(3-hydropyridyl)}-2-fluorobenzenecarbonitrile]: the 50% inhibitory concentration (IC50) (as a rule, the concentration needed to halve the response being measured) with Kasumi-1 is not above 100 nM; in the experiment with THP-1 (AML) cells, less than 100 nM; against full-length human LSD1 it was less than 100 nM.
Take `COc1ccc(-c2c(-c3ccc(C#N)c(F)c3)cc(N3CCC(N)CC3)c(=O)n2C)cc1F` [Example 84, 4-[5-(4-aminopiperidin-1-yl)-2-(3-fluoro-4-methoxyphenyl)-1-methyl-6-oxopyridin-3-yl]-2-fluorobenzonitrile]: the IC50 in the experiment with Kasumi-1 was not above 100 nM; with THP-1 (AML) cells, less than 100 nM; at full-length human LSD1 it was less than 100 nM.
For the compound `COCCn1c(-c2ccc(C)cc2)c(-c2ccc(C#N)cc2)nc(N2CCC(N)CC2)c1=O` [Example 36, 4-[6-(4-amino-piperidin-1-yl)-4-(2-methoxy-ethyl)-5-oxo-3-p-tolyl-4,5-dihydro-pyrazin-2-yl]-benzonitrile], the IC50 was not above 100 nM in the experiment with Kasumi-1, less than 100 nM in the experiment on THP-1 (AML) cells and less than 100 nM at full-length human LSD1.
With `COc1ccc(-c2c(-c3ccc(C#N)cc3)cc(N3CCC(N)CC3)c(=O)n2C)cc1F` [Example 83, 4-[5-(4-aminopiperidin-1-yl)-2-(3-fluoro-4-methoxyphenyl)-1-methyl-6-oxopyridin-3-yl]benzonitrile], the IC50 in the experiment on Kasumi-1 was not above 100 nM; in the experiment on THP-1 (AML) cells it was less than 100 nM; against full-length human LSD1 it was less than 100 nM.
As to `Cc1ccc(-c2c(-c3ccc(C#N)c(F)c3)nc(N3CCC(N)CC3)c(=O)n2CCCO)cc1` [Example 46, 4-[6-(4-aminopiperidyl)-4-(3-hydroxypropyl)-3-(4-methylphenyl)-5-oxo(4-hydropyrazin-2-yl)]-2-fluorobenzenecarbonitrile], the IC50 in the experiment on Kasumi-1 was not above 100 nM; with THP-1 (AML) cells it was less than 100 nM; on full-length human LSD1, less than 100 nM.
With `Cc1ccc(-c2c(-c3ccc(C#N)c(F)c3)nc(N3CCC(N)CC3)c(=O)n2C)cn1` [Example 66, 4-[6-(4-Amino-piperidin-1-yl)-4-methyl-3-(6-methyl-pyridin-3-yl)-5-oxo-4,5-dihydro-pyrazin-2-yl]-2-fluoro-benzonitrile], the IC50 in the experiment with Kasumi-1 is not above 100 nM; in the experiment on THP-1 (AML) cells, less than 100 nM; against full-length human LSD1 it was less than 100 nM.
Consider `Cc1ccc(-c2c(-c3ccc(C#N)c(F)c3)nc(N3CCC(N)CC3)c(=O)n2CCO)cc1` [Example 42, 4-[6-(4-amino-piperidin-1-yl)-4-(2-hydroxy-ethyl)-5-oxo-3-p-tolyl-4,5-dihydro-pyrazin-2-yl]-2-fluoro-benzonitrile], for which the IC50 is not above 100 nM in the experiment with Kasumi-1, less than 100 nM in the experiment with THP-1 (AML) cells and less than 100 nM against full-length human LSD1.
On to `Cc1ccc(-c2c(-c3ccc(C#N)cc3)cc(N3CCC(N)CC3)c(=O)n2C)cc1` [Example 75, 4-[5-(4-aminopiperidin-1-yl)-1-methyl-2-(4-methylphenyl)-6-oxopyridin-3-yl]benzonitrile], for which the IC50 in the experiment with Kasumi-1 is not above 100 nM; in the experiment on THP-1 (AML) cells, less than 100 nM; against full-length human LSD1, less than 100 nM.
Take `COc1ccc(-c2c(-c3ccc(C#N)c(F)c3)nc(NC[C@H]3CCNC3)c(=O)n2C)cc1` [Example 55, 2-fluoro-4-{3-(4-methoxy-phenyl)-4-methyl-5-oxo-6-[((3S)-pyrrolidin-3-ylmethyl)-amino]-4,5-dihydro-pyrazin-2-yl}-benzonitrile]: the values for the IC50 in the experiment on Kasumi-1, in the experiment on THP-1 (AML) cells and on full-length human LSD1 were not above 100 nM, less than 100 nM and less than 100 nM, respectively.
For `Cn1c(-c2ccc(C3CC3)cc2)c(-c2ccc(C#N)cc2)nc(N2CCC(N)CC2)c1=O` [Example 33, 4-[6-(4-aminopiperidin-1-yl)-3-(4-cyclopropylphenyl)-4-methyl-5-oxo-4,5-dihydropyrazin-2-yl]benzonitrile], the IC50 in the experiment on Kasumi-1 was not above 100 nM; in the experiment on THP-1 (AML) cells it was less than 100 nM; against full-length human LSD1, less than 100 nM.
Take `Cc1ccc(-c2c(-c3ccc(C#N)c(F)c3)cc(N3CCC(N)CC3)c(=O)n2C)cc1` [Example 76, 4-[5-(4-aminopiperidin-1-yl)-1-methyl-2-(4-methylphenyl)-6-oxopyridin-3-yl]-2-fluorobenzonitrile]: the IC50 in the experiment with Kasumi-1 is not above 100 nM; with THP-1 (AML) cells, less than 100 nM; on full-length human LSD1, less than 100 nM.
As for `CCc1ccc(-c2c(-c3ccc(C#N)cc3)nc(NC[C@H]3CCNC3)c(=O)n2C)cc1` [Example 28, 4-[3-(4-ethylphenyl)-4-methyl-5-oxo-6-{[(3S)-pyrrolidin-3-ylmethyl]amino}-4,5-dihydropyrazin-2-yl]benzonitrile], the IC50 in the experiment with Kasumi-1 is not above 100 nM; with THP-1 (AML) cells it was 100 to 1000 nM; at full-length human LSD1, less than 100 nM.
For the compound `COc1ccc(-c2c(-c3ccc(C#N)c(F)c3)cc(NC[C@H]3CCNC3)c(=O)n2C)cc1` [Example 70, (S)-2-fluoro-4-(2-(4-methoxyphenyl)-1-methyl-6-oxo-5-(pyrrolidin-3-ylmethylamino)-1,6-dihydropyridin-3-yl)benzonitrile], the IC50 was not above 100 nM in the experiment with Kasumi-1, less than 100 nM in the experiment with THP-1 (AML) cells and less than 100 nM at full-length human LSD1.
`Cc1ccc(-c2c(-c3ccc(C#N)cc3)nc(N3CCC(N)CC3)c(=O)n2CCCO)cc1` [Example 40, 4-[6-(4-amino-piperidin-1-yl)-4-(3-hydroxy-propyl)-5-oxo-3-p-tolyl-4,5-dihydro-pyrazin-2-yl]-benzonitrile]: the results for the half-maximal inhibitory concentration (IC50) in the experiment on Kasumi-1, with THP-1 (AML) cells and against full-length human LSD1 were not above 100 nM, less than 100 nM and less than 100 nM, respectively.
